Assay results as given in paper PMC12466706 (Antioxidants, 2025).
Read-outs that look alike come from different tables or passages of the source.

What was measured:
DENV [1] = test: microbe, parasite or virus in culture; type: cell-based, Dengue virus (DENV-2 16681 strain); conditions: for EC50: read-out: Replication EC50
DENV [2] = test: microbe, parasite or virus in culture; type: cell-based, Dengue virus (DENV-2 16681 strain)
[3] = tested on: pBR322 supercoiled plasmid DNA; type: biochemical, Escherichia coli; also: test concentration or dose not given here
DENV [4] = test: microbe, parasite or virus in culture; type: cell-based, Dengue virus (DENV-2 16681 strain); remark: listed apart in the source
[5] = not given; remark: listed apart in the source
YFV = test: microbe, parasite or virus in culture; type: cell-based, Yellow fever virus (YFV-17D); conditions: read-out: EC50 against YFV replication
Huh7 cells = conditions: human
in vitro = conditions: human
[6] = Dengue virus, 72 h, read-out: Entry + Replicaion EC50
[7] = Dengue virus, Huh-7, 72 h, read-out: Entry + Replication EC50
[8] = Dengue virus, Huh-7, 72 h, read-out: Infectivity EC50
[9] = Dengue virus, Huh-7, read-out: Infectivity EC50

Structure (SMILES)	EC50 (DENV [1]; Dengue virus, Huh-7, 72 h)	EC50 (DENV [2]; [6])	EC50 (DENV [2]; [7])	inhibition of DNA strand breakage [3]	DPPH scavenging activity IC50	EC50 (DENV [4]; [8])	EC50 (DENV [4]; [9])	ABTS radical scavenging activity IC50 [5]	EC50 (YFV; Yellow fever virus, 72 h)	CC50 (Huh7 cells)	CC50 (in vitro)	EC50 (DENV [1]; Dengue virus)	Replication EC50 (DENV [1])	EC50 (DENV [1])	Entry + Replicaion EC50 (DENV [2])	EC50 (DENV [2]; read-out: Entry + Replication EC50)	Infectivity EC50 (DENV [4])	EC50 (DENV [4]; read-out: Infectivity EC50)	EC50 (YFV)
O=C(O)/C=C/c1ccc(O)c(O)c1 [Caffeic acid, caffeic acid]	35.9 ± 1.88 µM	> 4.5 µg/mL	> 100 µM	98.98%	6.37 µg/mL	51.5 ± 1.19 µM	4.63 µg/mL	1.28 µg/mL	> 100 µM	–	–	–	–	–	–	–	–	–	–
O=c1c(O)c(-c2ccc(O)cc2)oc2cc(O)cc(O)c12 [Kaempferol, kaempferol]	31.5 ± 6.39 µM	2.53 µg/mL	35.5 ± 4.09 µM	97.34%	7.40 µg/mL	3.55 ± 0.07 µM	0.25 µg/mL	1.84 µg/mL	> 50 µM	> 6.466 µg/mL	90.4 µM	–	–	–	–	–	–	–	–
O=C(/C=C/c1ccc(O)c(O)c1)O[C@H](Cc1ccc(O)c(O)c1)C(=O)O [Rosmarinic acid, rosmarinic acid]	76.2 ± 7.92 µM	25.6 µg/mL	70.9 ± 9.1 µM	93.12%	12.28 µg/mL	37.1 ± 0.94 µM	13.4 µg/mL	3.05 µg/mL	98 ± 21 µM	–	> 500 µM	27.4 µg/mL	–	–	–	–	–	–	–
O=c1c(O)c(-c2ccc(O)c(O)c2)oc2cc(O)cc(O)c12 [Quercetin, quercetin]	58.5 ± 7.08 µM	32.1 µg/mL	109 ± 17.6 µM	96.52%	8.05 µg/mL	104 ± 1.49 µM	31.4 µg/mL	1.93 µg/mL	> 100 µM	–	–	17.7 µg/mL	–	–	–	–	–	–	–
O=C1C[C@@H](c2ccc(O)cc2)Oc2cc(O)cc(O)c21 [Naringenin, naringenin]	> 100 µM	28.5 µg/mL	> 100 µM	92.03%	17.45 µg/mL	> 100 µM	> 27.2 µg/mL	3.37 µg/mL	102 ± 34.4 µM	–	–	> 27.2 µg/mL	–	–	–	–	–	–	–
O=c1cc(-c2ccc(O)c(O)c2)oc2cc(O)cc(O)c12 [Luteolin, luteolin]	107 ± 1.82 µM	20.8 µg/mL	72.7 ± 7.76 µM	95.87%	9.48 µg/mL	> 100 µM	> 28.6 µg/mL	2.20 µg/mL	> 100 µM	–	–	30.7 µg/mL	–	–	–	–	–	–	–
O=C(O)/C=C/c1ccc(O)cc1 [Coumaric acid, coumaric acid]	> 100 µM	7.87 µg/mL	48 ± 2.43 µM	89.85%	21.17 µg/mL	91.64 ± 0.4 µM	15 µg/mL	4.00 µg/mL	154 ± 29.8 µM	–	–	> 16.4 µg/mL	–	–	–	–	–	–	–
COc1cc(/C=C/C(=O)O)ccc1O [Ferulic acid, ferulic acid]	–	–	–	94.17%	10.14 µg/mL	–	–	2.51 µg/mL	–	–	–	–	> 19.41 µg/mL	> 100 µM	> 19.41 µg/mL	> 100 µM	> 19.41 µg/mL	> 100 µM	> 100 µM
C[C@@H]1O[C@@H](OC[C@H]2O[C@@H](Oc3c(-c4ccc(O)c(O)c4)oc4cc(O)cc(O)c4c3=O)[C@H](O)[C@@H](O)[C@@H]2O)[C@H](O)[C@H](O)[C@H]1O [Rutin, rutin]	> 100 µM	> 61 µg/mL	> 100 µM	88.60%	21.86 µg/mL	> 100 µM	> 61 µg/mL	4.54 µg/mL	> 100 µM	–	> 500 µM	> 61 µg/mL	–	–	–	–	–	–	–
